From US20050131238A1, “Spermicides” (SSL International plc, priority 2001, published 2005)

Assays:
human sperm = experiment: Evaluation of human sperm motility (spermicidal efficacy), manual microscopy; type: cell-based; details: concentration giving 50% inhibition of sperm motility vs control, motility determined within 30 s by manual microscopy, ± SEM, read-out: Inhibition Human Sperm Motility (ED50)
Excerpt: 1. Evaluation of Human Sperm Motility (Spermicidal Efficacy)
The number of motile sperm (%) is rapidly determined (within 30s) following exposure to varying concentrations of spermicide using manual microscopy. Using non-linear regression analysis motility data from these screens is used to generate concentration response curves and subsequently an ED50 value using GraphPad Prism software (San Diego, Calif., USA). The ED50 value is the concentration of spermicide which produces 50% inhibition of sperm motility compared to control.

ME180 cells = experiment: Cell cytotoxicity (MTT cell viability assay); type: cell-based; details: Homo sapiens, ME-180, concentration giving 50% inhibition of cell viability vs control, ± SEM
Procedure: 2. Determination of Cell Cytotoxicity (MTT Cell Viability Assay)
The effect of compounds on vaginal cell viability is assessed using the MTT assay. MTT is a tetrazolium salt which is converted by viable cells to an insoluble […]. This colour conversion is measured by spectrophotometry. Data is then subjected to non-linear regression analysis to generate concentration response curves and subsequently an EC50 value curves using GraphPad Prism software (San Diego, Calif., USA). The EC50 value is the concentration of spermicide which produces 50% inhibition of cell viability compared to control.

sperm = details: 10 mM CPhM solution, incubation for 10 minutes; decreased from 80%; cited from earlier work

Compound | EC50 (human sperm) | EC50 (ME180 cells) | fertilising capacity of sperm (sperm)
COC(=O)c1scc(C)c1N1C(=O)C=CC1=O [Compound 6] | 26 µM | 88 µM | 
O=C1C=CC(=O)N1c1ccc(Nc2ccccc2)cc1 [Compound 4] | 31 µM | 268 µM | 
O=C1C=CC(=O)N1C1CCCCC1 [Compound 5] | 294 µM | 114 µM | 
O=C(O)c1ccc(N2C(=O)C=CC2=O)cc1O [CPhM, N-(4-carboxy-3-hydroxy-phenyl)-maleimide] |  |  | 17%
O=C1C=CC(=O)N1CCOCCOCCOCCN1C(=O)C=CC1=O [Compound 12] | 10.5 µM | 333 µM | 
N#Cc1cccc(N2C(=O)C=CC2=O)c1 [Compound 9] | 56 µM | 143 µM | 
O=C1C=CC(=O)N1c1ccccc1 [Compound 1] | 32 µM | 370 µM | 
O=C1C=CC(=O)N1c1ccc(OCCOCCOCCOCCOc2ccc(N3C(=O)C=CC3=O)cc2)cc1 [Compound 15] | 5 µM | 153 µM | 
COCCOCCOCCOCCOc1ccc(N2C(=O)C=CC2=O)cc1 [Compound 14] | 149 µM | 285 µM | 
O=C1C=CC(=O)N1c1ccc(OCCOCCOCCOCCOCCOc2ccc(N3C(=O)C=CC3=O)cc2)cc1 [Compound 13] | 4.6 µM | 125 µM | 
O=C1C=CC(=O)N1CCN1C(=O)C=CC1=O [Compound 10] | 4 µM | 516 µM | 
O=C1C=CC(=O)N1c1ccc(-c2ccc(N3C(=O)C=CC3=O)cc2)cc1 [Compound 11] | 1.4 µM | > 30 µM | 
Cc1cc(N2C(=O)C=CC2=O)no1 [Compound 8] | 79 µM | 858 µM | 
O=C1C=CC(=O)N1c1ccc2c(c1)OCCO2 [Compound 7] | 43 µM | 410 µM | 
CCOC(=O)c1ccc(N2C(=O)C=CC2=O)cc1 [Compound 3] | 77 µM | 363 µM | 
